A value given as a limit tells only on which side of the number the result lay.

In general, melting point refers to the temperature of the solid-liquid transition. The molecule `CCCCCCCc1ccc(-c2ccc(-c3cc(F)cc(F)c3)cc2)nc1` displayed a melting point of 185 to 186 °C. The value for `CCCCCCCCN=C=O` was 60 to 62 °C. The value for `O=C(O)/C=C/c1cccc(-c2nc3c(=O)n(CC4CCCCC4)c(=O)n(CC4CCCCC4)c3[nH]2)c1` was more than 350 °C; that for `COC(=O)NCC(C)(C)c1ccc(NC(=O)c2ccc(OC)c(OC)c2)cc1` was 67 to 69 °C; that for `CCc1ccc(NC(C)=O)cc1` was 94 to 96 °C. In the case of `CCOC(=O)Nc1nc(Cc2ccccc2)c(C(=O)c2sc(NC(=O)OCC)nc2Cc2ccccc2)s1`, the melting point lay in the range of 145 to 146 °C.

For the molecule `O=C(c1ccc2nonc2c1)N1CC2CC1C(Cl)C2Cl` (stereo not drawn), the melting point lay in the range of 156 to 157 °C.

In turn, `CN1COc2c(N3CC4CCOC4(CNC(=O)OC(C)(C)C)C3)c(F)cc3c(=O)c(C(=O)O)cn1c23` (stereo not drawn) gave a melting point of 176 °C.

The molecule `O=C1Cc2ccc(S(=O)(=O)Cl)cc21` registered a melting point of 80 °C. The molecule `O=C(Nc1ccc(N2CCC(C(C(=O)O)c3ccccc3)CC2)cc1)c1ccccc1-c1ccc(C(F)(F)F)cc1` (stereo not drawn) returned a melting point of 196 °C. The value for `CC(=O)NC[C@H]1CN(c2ccc3c(c2)CSCC3)C(=O)O1` was 139 to 140 °C. As for `CC(=O)Nc1ncc(-c2ccc(=O)n(C(C)C)n2)c(-c2ccccc2)n1`, the figure is 209 to 210 °C; as for `CN1C(=O)C(N)N=C(c2ccccc2)c2cnccc21` (stereo not drawn), 109 to 123 °C. As for `O=c1cc2c(nn1-c1ccc(Cl)cc1)-c1cc(Cl)ccc1S(=O)CC2` (stereo not drawn), the figure is 239 to 241 °C; as for `C[C@@H](n1ncn(-c2ccc(F)cc2)c1=O)[C@@]1(c2ccc(F)cc2F)CO1`, 100 to 101 °C; as for `Cc1sc(C(=O)NN)c(S(N)(=O)=O)c1C#N`, 186 to 191 °C.

`CN1C(=O)C(C(=O)Nc2ccc(Cl)c(C(F)(F)F)c2)S(=O)(=O)c2ccc(Cl)cc21` (stereo not drawn) gave a melting point of 220 to 222 °C.

`O=C(CCCNC(=O)C(=O)c1cn2c3c(cccc13)CCC2)NOCc1ccccc1` registered a melting point of 88 to 90 °C. Regarding `Nc1cc(N2CCCNCC2)nc(N)n1`, the melting point is 62 to 72 °C. The molecule `COC(=O)NCCOC(=O)C(C)Oc1ccc(OCc2ccccc2)cc1` (stereo not drawn) showed a melting point of 79 to 81 °C. For the molecule `CCOC(=O)C1C(C)(O)CCC(O)C1(C)C` (stereo not drawn), the melting point is 92 to 94 °C. As for `COC(=O)[C@@H]1CN(C#N)C[C@H]1c1ccc(OC)c(OC2CCCC2)c1` (relative stereo), the figure is 78 to 80 °C; as for `CCOC(=O)NN=Cc1ccnc2ccccc12`, 161 °C; as for `COc1cn(-c2ccc(OCc3ccccc3)cc2F)nc(-c2ccnn2-c2ccccc2)c1=O`, 181 to 183 °C. The value for `CC(C)(C)C(=O)c1sc(NC(=O)c2ccncc2)nc1-c1ccco1` was 240 to 245 °C; that for `CCc1nc2c(N)nc3ccccc3c2n1CCCCNC(=O)c1ccccc1` was 203 to 206 °C; that for `O=C(CSCc1ccc(Cl)c(Cl)c1)NO` was 75 to 76 °C. The molecule `COCN1C(=O)CN2CCOC2(c2ccccc2Cl)c2cc(Cl)ccc21` (stereo not drawn) gave a melting point of 144 to 147 °C. As for `Cc1ccc(C2COc3c(C)c(C)c(N)c(C)c32)nc1` (stereo not drawn), the figure is 125 to 127 °C; as for `O=C1CCC(N2CCN(c3ccccn3)CC2)CC1`, 142 to 144 °C; as for `CC(=O)Oc1cnccc1CCCOc1cccnc1Oc1cccc(Cl)c1`, 107 to 126 °C.

`O=C(NCc1ccccn1)c1ccc(C(F)(F)F)cc1C(F)(F)F`: the melting point is 112 to 113 °C. The value for `COc1ccc(C2C3=C(COC3=O)Nc3ccc4cn[nH]c4c32)cc1[N+](=O)[O-]` (stereo not drawn) was 217 to 218 °C. The value for `COc1cccc2c(=O)c(SC)coc12` was 113 to 115 °C.

Molecule `c1ccc(C2NCCNCc3ccccc32)cc1` (stereo not drawn) came in with a melting point of 125 °C. As for `COc1ccc2c(C(=O)c3ccc(OC4CCCCC4N(C)C)cc3)c(-c3ccc(OCCN4CCCC4)cc3)sc2c1` (stereo not drawn), the figure is 61 to 64 °C; as for `CC(=O)Nc1ccc([N+](=O)[O-])c(Cl)c1`, 134 to 136 °C; as for `CCCCc1ccc(CCc2cc3c(s2)NC(=S)CN=C3c2ccccc2Cl)cc1`, 152 to 154 °C. As for `CSCC[C@@H](NC(=O)[C@H](Cc1ccc(O)cc1)NC(=O)OC(C)(C)C)C(=O)NCC(=O)Oc1c(Cl)c(Cl)c(Cl)c(Cl)c1Cl`, the figure is 175 to 176 °C; as for `CCOP(=O)(/C=C/c1cn(-c2ccccc2)nc1OCc1ccc(OCc2nc(-c3ccc(C(=O)OC)cc3)oc2C)c(OC)c1)OCC`, 129 to 130 °C; as for `N#CCCn1cc(-c2cccc(Cl)c2Cl)c(C(F)(F)F)c1`, 83 to 85 °C.

With `c1c(N2CCCC2)nc(N2CCNCC2)nc1N1CCCC1`, the melting point fell in the range of 152 to 160 °C.

For `COc1ccc(C(=O)NC(=O)Nc2ccc3c(c2)NC(=O)/C3=C/c2ccco2)cc1`, the melting point was 278 to 283 °C. As for `COc1ccc(Cl)cc1C(=O)NC1COc2cc(OC)c(S(=O)(=O)NC(=O)NC(C)C)cc2C1` (stereo not drawn), the figure is 181 to 183 °C; as for `N#Cc1ccc(OCCCCCCl)cc1`, 47 °C; as for `CC(C)(C)CC(C)(C)c1ccc(OCCOC(=O)c2ccc(Nc3nc(Cl)nc(Cl)n3)cc2)cc1`, 249 to 251 °C. As for `NC(=O)c1cc(-c2ccnc(Nc3cccc(OC(F)(F)C(F)F)c3)n2)ccn1`, the figure is 224 to 225 °C; as for `CNS(=O)(=O)c1ccc(Oc2ccc(Cl)cc2)cc1`, 80 to 83 °C. `CN(Cc1ccc2c(Br)c(O)ccc2c1)C(=O)c1cn(C)c2ccccc12` gave a melting point of 189 to 190 °C. As for `Cn1cc(SC(F)(F)F)c(N)n1`, the figure is 138 to 140 °C; as for `Cc1c(C)c2c(c(C)c1O)CCC(C)(O)O2` (stereo not drawn), 105 to 107 °C; as for `CNS(=O)(=O)Nc1cc(-c2nn(C)c(OC(F)F)c2Cl)c(Cl)cc1Cl`, 133 °C. Turning to `O=C(N[C@H]1C[C@H](C(=O)O)Nc2cc(Cl)cc(Cl)c21)c1ccccc1Cl` (relative stereo), the melting point was in the range of 141 to 143 °C. `Cc1ccc(S(=O)(=O)OC2CCc3[nH]c4ccccc4c3C2)cc1` (stereo not drawn) gave a melting point of 148 to 151 °C. As for `COCCO[C@@H]1c2ccc3c(nc(C)n3C)c2O[C@H](c2ccccc2)[C@H]1OC(=O)COC`, the figure is 200 °C. `C#CC(C)(C)NC(=O)c1cnc(N2CCC(N3C(=O)OCc4ccccc43)CC2)c(Cl)c1` registered a melting point of 135 to 138 °C. As for `Oc1nc(C2CC2)ncc1Br`, the figure is 200 °C. The value for `COc1ccc(-c2nc(CNC(=O)OCc3ccccc3)sc2-c2cccnc2)cc1` was 93 to 94 °C; that for `O=C(O)C(=O)N1CCc2cc(S(=O)(=O)N3CCN(c4cccc(Cl)c4)CC3)ccc21` was 219 to 220 °C; that for `Cc1cccc(-c2n[nH]cc2-c2ccc(F)c(-c3cn4c(n3)S(=O)CC4)c2)n1` (stereo not drawn) was 140 to 144 °C. The value for `ON=C(c1cccc(F)c1)c1cccc2nc(N[C@@H]3CCc4ccccc43)ccc12` was 180 °C; that for `O=C(Nc1ccc(CN2C(=O)[C@H]3CCC[C@H]3N(C(=O)CN3C(=O)c4ccccc4C3=O)c3ccccc32)cc1)c1ccc(Br)cc1` (relative stereo) was 175 to 180 °C; that for `N#CC(c1ccccc1)(c1ccccc1)[C@H]1CCCN(CCc2ccc(Cl)cc2)C1` was 129 to 131 °C. Regarding `NC(=O)C(NC(=O)OCc1ccccc1)C(O)CO` (stereo not drawn), the melting point was in the range of 175 to 176 °C. Molecule `CCc1[nH]c(=S)[nH]c1C(=O)c1ccncc1` registered a melting point of 275 °C. As for `CCCCc1c(C(=O)c2cccnc2)c2ccccc2n1C`, the figure is 89 to 90 °C; as for `O=C(OC1CCCCC1=O)c1ccc(Cl)cc1` (stereo not drawn), 84 to 85 °C; as for `CC(=O)OCC1=C(C(=O)O)N2C(=O)C(=NSc3ccc(C)cc3)C2SC1` (stereo not drawn), 204 to 206 °C. The value for `O=C(O)CCc1cn(Cc2ccc(OCCn3ncc4ccccc4c3=O)cc2)nc1-c1ccccc1` was 155 to 156 °C; that for `CCCn1nnn(-c2cc(OC)c(C(F)(F)F)cc2Cl)c1=O` was 82 to 83 °C; that for `O=C(O)c1cccc(OCc2c(Cl)cccc2Cl)c1` was 187 to 189 °C.

The molecule `CCN(CC)C(=O)c1ccc2ccccc2c1-c1cccc(COC(C)(C)C)c1` came in with a melting point of 117 to 119 °C. As for `CCCCCCCCCCCC1=NC(=Cc2[nH]c(-c3ccc[nH]3)cc2OCC)C=C1`, the figure is 94 to 96 °C; as for `COC(=O)c1cc(O)nn1C1CCCCC1`, 195 to 196 °C; as for `C[C@H](NC(=O)c1c[nH]c2ncc(-c3cn(-c4cc(C(F)(F)F)ccc4F)cn3)nc12)C(C)(C)C`, more than 300 °C. In turn, `CCOC(=O)C1=CC2(CCC1S(=O)(=O)Nn1cccc1)OCCO2` (stereo not drawn) displayed a melting point of 115 to 117 °C. On to `CCOCc1nc2c(N)nc3ccccc3c2n1CCCCS(=O)(=O)NC1CCCCC1`, for which the melting point was 197 to 198 °C. As for `CC(C)NCC(O)COc1ccc(C2=NNC(=O)CC2)cc1` (stereo not drawn), the figure is 108 to 115 °C; as for `Fc1cc(Cl)ccc1-n1nn[nH]c1=S`, 128 °C.

In turn, `CCC(C)(C)c1cccc(NC=O)c1Br` showed a melting point of 88 to 89 °C. The value for `CCOC(=O)C1C(C)C=CC(NC(=O)OC(C)(C)C)C1[N+](=O)[O-]` (stereo not drawn) was 139 to 145 °C; that for `N#Cn1nc(-c2ccccc2)c(=O)cc1Cl` was 117 to 119 °C. As for `CCN(CC)CCCNC(=S)N1CC(Oc2ccc(C(F)(F)F)cc2)C1`, the figure is 109 to 110 °C; as for `CON=C1COc2cc(OCc3ccccc3N(OC)C(=O)OC)ccc21`, 102 to 103 °C; as for `CCNC(SC)=C(C#N)C(=O)OC`, 86 to 88 °C. The value for `COCCc1nc2c(N)nc3ccccc3c2n1CCOCCNC(=O)c1ccc(C(=O)NCCOCCn2c(CCOC)nc3c(N)nc4ccccc4c32)cc1` was 229 to 233 °C; that for `CC(C)(C)n1nc2c(=O)[nH]c3ccccc3c2c1CO` was 295 to 297 °C.

For the molecule `COc1ccc(C2CC(c3ccc(F)cc3)=NN2c2ccc(C(=O)O)cc2)cc1` (stereo not drawn), the melting point was found to be 218 °C.

For the origin of these results see a melting point compilation (Tetko et al.; mined from patent text by program, amines drawn as free bases though some values may be those of a salt).
